Measured values taken from patent publication US20130252930A1 (BIOMARIN PHARMACEUTICAL INC., priority 2010, published 2013).
Where two headings read alike, the source gives them in different places.

Tests used:
[1] = molecular target: T1, CYP17 (human testicular microsome) (Homo sapiens, UniProt P05093); experiment: CYP17 enzymatic assay (IC50) (Biological Example 4); type: biochemical
T1 construct: using microsomal fraction from human testis (Celsis Cat #S00110) as the enzyme source; tissue Celsis S00110; host or cells: human testis microsomal fraction
T1 sequence (P05093 1-508): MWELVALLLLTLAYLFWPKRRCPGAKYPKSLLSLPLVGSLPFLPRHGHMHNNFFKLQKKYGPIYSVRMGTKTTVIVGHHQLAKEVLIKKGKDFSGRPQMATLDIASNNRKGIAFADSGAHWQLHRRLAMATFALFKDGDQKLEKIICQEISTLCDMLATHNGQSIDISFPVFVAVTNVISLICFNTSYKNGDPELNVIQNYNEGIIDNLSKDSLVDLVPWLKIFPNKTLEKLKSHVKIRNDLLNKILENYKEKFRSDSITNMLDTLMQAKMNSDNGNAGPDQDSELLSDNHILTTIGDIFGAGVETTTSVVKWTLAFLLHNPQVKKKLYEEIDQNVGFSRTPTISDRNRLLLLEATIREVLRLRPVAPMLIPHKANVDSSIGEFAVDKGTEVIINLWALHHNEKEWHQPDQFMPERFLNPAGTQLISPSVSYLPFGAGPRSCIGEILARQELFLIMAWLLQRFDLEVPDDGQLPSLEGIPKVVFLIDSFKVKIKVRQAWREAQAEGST

[2] = molecular target: T1, CYP17 (human testicular microsome); experiment: CYP17 enzymatic assay (% inhibition at 1 nM) (Biological Example 12); type: biochemical; settings: compound at 1 nM
[3] = Human liver microsome stability assay (Biological Example 8b); settings: liver microsomes, pH 7.4
Protocol: The reaction was started with addition of excess NADPH (5 mg/mL, 15 μL in 0.1 M potassium phosphate buffer, 1.0 mM EDTA, pH 7.4), the total volume is 45 μL (compound final concentration was 1 μM). […] 50 μL of the supernatant was transferred from each well into a 96-well sample plate containing 50 μL of ultra-pure water (Millipore) for LC-MS/MS analysis.

[4] = molecular target: T1, CYP17 (human testicular microsome); experiment: CYP17 enzymatic assay (% inhibition at 10 nM), version 1 (Biological Example 5); type: biochemical
[5] = human testicular microsome, read-out: Biological Example No. 4: CYP17 enzymatic assay IC50
[6] = read-out: Biological Example No. 12: CYP17 enzymatic assay % inhibition at 1 nM
[7] = human testicular microsome, read-out: CYP17 enzymatic assay IC50 (Biological Example No. 4)
[8] = read-out: CYP17 enzymatic assay % inhibition at 1 nM (Biological Example No. 12)
[9] = compound at 10 nM, read-out: CYP17 enzymatic assay % inhibition at 10 nM (Biological Example No. 5)
[10] = human testicular microsome, DHEA by ELISA, read-out: Biological Example No. 4: CYP17 enzymatic assay IC50
[11] = 10 nM compound, DHEA by ELISA, read-out: Biological Example No. 5: CYP17 percent inhibition at 10 nM (version 1)

| SMILES | IC50 [1, 5] | half-life at 1 μM [3] | IC50 [1, 7] | inhibition at 0.001 µM [2, 8] | further results |
| --- | --- | --- | --- | --- | --- |
| C[C@]12CC[C@H](O)CC1=CCC1C2CC[C@]2(C)C(c3ccc(F)nc3)=CCC12 (stereo partly drawn) [Compound 276, (3S,10R,13S)-17-(6-fluoropyridin-3-yl)-10,13-dimethyl-2,3,4,7,8,9,10,11,12,13,14,15-dodecahydro-1H-cyclopenta[a]phenanthren-3-ol] | > 25 nM | 1 to 50 min |  |  | inhibition at 0.001 µM [2, 6]: 10 to 50% |
| C[C@]12CCC3C(CC(F)[C@]4(O)C[C@@H](O)CC[C@]34C)C1CC=C2c1cccnc1 (stereo partly drawn) [Compound 322, (3S,5S,10R,13S)-6-fluoro-10,13-dimethyl-17-(pyridin-3-yl)-2,3,4,5,6,7,8,9,10,11,12,13,14,15-tetradecahydro-1H-cyclopenta[a]phenanthrene-3,5-diol] | < 11 nM | 1 to 50 min |  |  | inhibition at 0.001 µM [2, 6]: > 50% |
| C[C@]12CCC(NC(=O)C3CCC3)CC1=CCC1C2CC[C@]2(C)C(n3ccnc3)=CCC12 (stereo partly drawn) [Compound 240, N-((10R,13S)-17-(1H-imidazol-1-yl)-10,13-dimethyl-2,3,4,7,8,9,10,11,12,13,14,15-dodecahydro-1H-cyclopenta[a]phenanthren-3-yl)cyclobutanecarboxamide] |  | 1 to 50 min | < 11 nM | > 50% |  |
| C[C@]12CC[C@H](O)C[C@@H]1CC[C@@H]1[C@@H]2CC[C@]2(C)C(n3ccnn3)=CC[C@@H]12 [Compound 451, (3S,5S,8R,9S,10S,13S,14S)-10,13-dimethyl-17-(1H-1,2,3-triazol-1-yl)-2,3,4,5,6,7,8,9,10,11,12,13,14,15-tetradecahydro-1H-cyclopenta[a]phenanthren-3-ol] |  |  | < 11 nM | > 50% | inhibition at 0.01 µM [4, 9]: > 80% |
| C[C@]12CC[C@H](O)CC1=CCC1C2CC[C@]2(C)C(c3cncc(F)c3)=CCC12 (stereo partly drawn) [Compound 274, (3S,10R,13S)-17-(5-fluoropyridin-3-yl)-10,13-dimethyl-2,3,4,7,8,9,10,11,12,13,14,15-dodecahydro-1H-cyclopenta[a]phenanthren-3-ol] | < 11 nM | > 50 min |  |  | inhibition at 0.001 µM [2, 6]: > 50% |
| CC(=O)N[C@@H]1CC[C@@]2(C)C(=CC[C@@H]3[C@@H]2CC[C@]2(C)C(c4cncc(F)c4)=CC[C@@H]32)C1 [Compound 427, N-((3R,10R,13S)-17-(5-fluoropyridin-3-yl)-10,13-dimethyl-2,3,4,7,8,9,10,11,12,13,14,15-dodecahydro-1H-cyclopenta[a]phenanthren-3-yl)acetamide] | < 11 nM | 1 to 50 min |  |  | inhibition at 0.001 µM [2, 6]: > 50% |
| C[C@]12CCC3C(CC=C4C[C@H](O)CC[C@@]43C)C1=CC=C2c1cccnc1 (stereo partly drawn) [Compound 199, (3R,10R,13S)-10,13-dimethyl-17-(pyridin-3-yl)-2,3,4,7,8,9,10,11,12,13-decahydro-1H-cyclopenta[a]phenanthren-3-ol] |  | 1 to 50 min | < 11 nM | > 50% |  |
| CCCC(=O)N[C@@H]1CC[C@@]2(C)C(=CC[C@@H]3[C@@H]2CC[C@]2(C)C(c4cccnc4)=CC[C@@H]32)C1 [Compound 235, N-((3R,10R,13S)-10,13-dimethyl-17-(pyridin-3-yl)-2,3,4,7,8,9,10,11,12,13,14,15-dodecahydro-1H-cyclopenta[a]phenanthren-3-yl)butyramide] |  | 1 to 50 min | < 11 nM | > 50% |  |
| CC(=O)N[C@@H]1CC[C@@]2(C)C(CCC3C2CC[C@]2(C)C(c4cccnc4)=CCC32)C1 (stereo partly drawn) [Compound 215, N-((3R,10S,13S)-10,13-dimethyl-17-(pyridin-3-yl)-2,3,4,5,6,7,8,9,10,11,12,13,14,15-tetradecahydro-1H-cyclopenta[a]phenanthren-3-yl)acetamide] |  | 1 to 50 min | < 11 nM | > 50% |  |
| C[C@]12CC[C@@H](NC(=O)C3CC3)CC1=CCC1C2CC[C@]2(C)C(c3cccnc3)=CCC12 (stereo partly drawn) [Compound 224, N-((3R,10R,13S)-10,13-dimethyl-17-(pyridin-3-yl)-2,3,4,7,8,9,10,11,12,13,14,15-dodecahydro-1H-cyclopenta[a]phenanthren-3-yl)cyclopropanecarboxamide] |  | 1 to 50 min | < 11 nM | > 50% |  |
| C[C@]1(O)CC[C@@]2(C)C(CCC3C4=CC=C(c5cccnc5)[C@@]4(C)CCC32)C1 (stereo partly drawn) [Compound 259, (3S,10S,13S)-3,10,13-trimethyl-17-(pyridin-3-yl)-2,3,4,5,6,7,8,9,10,11,12,13-dodecahydro-1H-cyclopenta[a]phenanthren-3-ol] |  | 1 to 50 min |  | 10 to 50% | IC50 [1]: < 11 nM |
| COC1C[C@H]2[C@@H]3CC=C(n4ccnc4)[C@@]3(C)CC[C@@H]2[C@@]2(C)CCC3CC312 (stereo partly drawn) [Compound 236, 1-((3aR,5aS)-10-methoxy-3a,5a-dimethyl-1,1a,2,3,3a,3b,4,5,5a,8,8a,8b,9,10-tetradecahydrocyclopenta[a]cyclopropa[2,3]cyclopenta[1,2-f]naphthalen-6-yl)-1H-imidazole] |  |  | < 11 nM | 10 to 50% | inhibition at 0.01 µM [4, 9]: > 80% |
| C[C@]12CC[C@H](O)CC1=CCC1C2CC[C@]2(C)C(c3cncc(Cl)c3)=CCC12 (stereo partly drawn) [Compound 280, (3S,10R,13S)-17-(5-chloropyridin-3-yl)-10,13-dimethyl-2,3,4,7,8,9,10,11,12,13,14,15-dodecahydro-1H-cyclopenta[a]phenanthren-3-ol] | < 11 nM | 1 to 50 min |  |  | inhibition at 0.001 µM [2, 6]: > 50% |
| C#C[C@]1(O)CC[C@@]2(C)C(CCC3C2CC[C@]2(C)C(c4cccnc4)=CCC32)C1 (stereo partly drawn) [Compound 474, (3S,10S,13S)-3-ethynyl-10,13-dimethyl-17-(pyridin-3-yl)-2,3,4,5,6,7,8,9,10,11,12,13,14,15-tetradecahydro-1H-cyclopenta[a]phenanthren-3-ol] |  | > 50 min | > 25 nM | 10 to 50% |  |
| CC1(C)C2=CCC3C4=CC=C(c5cccnc5)[C@@]4(C)CCC3[C@@]2(C)CCC1O (stereo partly drawn) [Compound 298, (10R,13S)-4,4,10,13-tetramethyl-17-(pyridin-3-yl)-2,3,4,7,8,9,10,11,12,13-decahydro-1H-cyclopenta[a]phenanthren-3-ol] |  | 1 to 50 min | > 25 nM | 10 to 50% |  |
| COc1cncc(C2=CC=C3[C@@H]4CC=C5C[C@@H](OC(C)=O)CC[C@]5(C)[C@H]4CC[C@]23C)c1 [Compound 80, (3S,10R,13S)-17-(5-methoxypyridin-3-yl)-10,13-dimethyl-2,3,4,7,8,9,10,11,12,13-decahydro-1H-cyclopenta[a]phenanthren-3-yl acetate] |  |  |  |  | IC50 [1, 10]: < 11 nM; inhibition at 0.01 µM [4, 11]: > 80% |
| C[C@]12CC[C@H](O)CC1=CC[C@@H]1[C@@H]2CC[C@]2(C)C(c3cnccc3F)=CC[C@@H]12 [Cmpd 285] | < 11 nM | 1 to 50 min |  |  |  |
| CCCOc1cncc(C2=CC[C@H]3[C@@H]4CCN5C(=O)CCCC[C@]5(C)[C@H]4CC[C@]23C)c1 [Compound 42, (11aR,13aS)-11a,13a-dimethyl-1-(5-propoxypyridin-3-yl)-3b,4,5,8,9,10,11,11a,11b,12,13,13a-dodecahydro-3H-azepino[2,1-a]cyclopenta[f]isoquinolin-7(3aH)-one] |  |  |  |  | IC50 [1, 10]: < 11 nM; inhibition at 0.01 µM [4, 11]: 50 to 80% |
